Measured values as given in article PMC4769596 (Biochemical pharmacology, 2014).
pEC50: −log10 of the molar value. Like-named read-outs stand apart in the source and are kept apart here.

Key:
[1] = target: μOR (spinal cord membranes from δOR−/− mice) (Mus musculus, UniProt P42866); experiment: [35S]GTPγS binding, spinal cord membranes from δOR−/− mice; assay type: biochemical; details: spinal cord membranes (10 μg), basal = 100%
[2] = test system: spinal cord membranes from μOR−/− mice; experiment: [35S]GTPγS binding, spinal cord membranes from μOR−/− mice; assay type: biochemical
[3] = target: μOR (spinal cord membranes from WT mice) (Mus musculus, UniProt P42866); experiment: [35S]GTPγS binding, spinal cord membranes from WT mice; assay type: biochemical; details: spinal cord membranes (10 μg); for Emax (% basal), [35S]GTPγS binding: basal = 100%
μOR (spinal cord membranes from WT mice), sequence (P42866 whole entry): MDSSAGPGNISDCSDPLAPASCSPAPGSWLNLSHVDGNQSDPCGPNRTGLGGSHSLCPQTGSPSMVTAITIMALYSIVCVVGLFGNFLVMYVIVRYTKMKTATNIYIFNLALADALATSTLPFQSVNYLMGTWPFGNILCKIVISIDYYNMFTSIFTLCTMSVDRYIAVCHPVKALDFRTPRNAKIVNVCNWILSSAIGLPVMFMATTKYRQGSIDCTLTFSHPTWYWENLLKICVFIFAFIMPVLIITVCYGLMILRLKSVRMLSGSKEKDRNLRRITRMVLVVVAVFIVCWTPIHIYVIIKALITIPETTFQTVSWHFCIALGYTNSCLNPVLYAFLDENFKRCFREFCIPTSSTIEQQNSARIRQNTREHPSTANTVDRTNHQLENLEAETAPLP

antinociception = details: cited from earlier work
[4] = Chronic treatment, body weight; details: 10 mg/kg/day p.o. for 5 days
[5] = test system: novel-environment stressed mice; details: doses of 5–25 mg/kg; cited from earlier work
[6] = target: μOR (membranes from the ileum of WT mice) (Mus musculus, UniProt P42866); experiment: [35S]GTPγS binding, ileal membranes from WT mice; assay type: biochemical; details: 10 μM (Fig. 1G)
μOR (membranes from the ileum of WT mice), sequence (P42866 whole entry): as above

[7] = test system: castor oil-induced diarrhea in δOR−/− mice; experiment: Castor oil-induced diarrhea in δOR−/− mice; assay type: in vivo; details: for castor oil induced fecal output (fecal weight): 4 h; for castor oil-induced decrease in body weight: 5 or 10 mg/kg p.o., 4 h after castor oil
[8] = target: μOR-δOR heteromers (μ^βgalOR-δOR cells) (Homo sapiens, UniProt P35372+P41143)
μOR-δOR heteromers (μ^βgalOR-δOR cells), sequence (P35372 whole entry): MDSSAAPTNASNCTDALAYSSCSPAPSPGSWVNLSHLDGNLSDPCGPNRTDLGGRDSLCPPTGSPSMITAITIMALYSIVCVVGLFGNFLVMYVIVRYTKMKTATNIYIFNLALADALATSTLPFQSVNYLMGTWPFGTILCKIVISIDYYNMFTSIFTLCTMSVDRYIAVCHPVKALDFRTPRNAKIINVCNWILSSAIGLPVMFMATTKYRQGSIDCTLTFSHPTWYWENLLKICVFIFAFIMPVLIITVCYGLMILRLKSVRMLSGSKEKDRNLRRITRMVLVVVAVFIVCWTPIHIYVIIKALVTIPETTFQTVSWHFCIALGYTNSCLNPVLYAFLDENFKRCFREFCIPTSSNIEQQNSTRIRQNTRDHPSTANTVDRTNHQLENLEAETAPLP
μOR-δOR heteromers (μ^βgalOR-δOR cells), sequence (P41143 whole entry): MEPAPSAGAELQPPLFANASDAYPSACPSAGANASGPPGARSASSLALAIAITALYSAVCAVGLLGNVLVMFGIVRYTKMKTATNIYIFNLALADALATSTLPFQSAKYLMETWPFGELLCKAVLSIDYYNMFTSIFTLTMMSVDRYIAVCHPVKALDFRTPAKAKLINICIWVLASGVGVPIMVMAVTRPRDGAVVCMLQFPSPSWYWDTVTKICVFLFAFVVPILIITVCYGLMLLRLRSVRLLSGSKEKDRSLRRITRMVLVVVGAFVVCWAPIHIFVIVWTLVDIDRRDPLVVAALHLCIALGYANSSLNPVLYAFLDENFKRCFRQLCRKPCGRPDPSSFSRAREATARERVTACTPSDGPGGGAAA

[9] = target: μOR homomers (μ^βgalOR cells) (Homo sapiens, UniProt P35372); assay type: cell-based
μOR homomers (μ^βgalOR cells), sequence (P35372 whole entry): as the sequence (P35372 whole entry) above

[10] = test system: castor oil-induced diarrhea in WT mice; assay type: in vivo; details: for effect on body weight change in presence of naltrexone: WT and δOR−/− mice; for reduction in castor oil-induced diarrhea after naltrexone pre-treatment: 10 mg/kg p.o., naltrexone 10 mg/kg i.p. 20 min before; for castor oil-induced diarrhea (diarrhea score): 5 or 10 mg/kg p.o. 15 min before castor oil; for castor oil-induced diarrhea (diarrhea score) / castor oil induced fecal output (fecal weight): 4 h; for castor oil induced fecal output (fecal weight) / castor oil-induced decrease in body weight: 5 or 10 mg/kg p.o.

μOR (spinal cord membranes from δOR−/− mice), sequence (P42866 whole entry): as the sequence (P42866 whole entry) above

SMILES	Emax (% basal), [35S]GTPγS binding [1]	increase of [35S]GTPγS binding [2]	Emax (% basal), [35S]GTPγS binding [3]	changes in body weight [4]	castor oil-induced diarrhea (diarrhea score) ([7]; 5 mg/kg p.o.)	castor oil induced fecal output (fecal weight) ([7]; 5 mg/kg p.o.)	castor oil-induced diarrhea (diarrhea score) ([7]; 10 mg/kg p.o.)	castor oil-induced decrease in body weight [7]	effect on body weight change in presence of naltrexone ([10]; naltrexone 10 mg/kg i.p.)	reduction in castor oil-induced diarrhea after naltrexone pre-treatment ([10]; WT mice)	castor oil-induced diarrhea (diarrhea score) ([10]; WT mice)	castor oil induced fecal output (fecal weight) ([10]; WT mice)	castor oil-induced decrease in body weight ([10]; WT mice, 4 h after castor oil)	further results
C[C@@H](NC(=O)[C@@H](N)Cc1ccc(O)cc1)C(=O)NCC(=O)N(C)[C@@H](Cc1ccccc1)C(=O)NCCO [DAMGO, [D-Ala^2, N-MePhe^4, Gly-ol]-enkephalin]	~ 147 % basal	did not increase	~ 143 % basal	–	–	–	–	–	–	–	–	–	–	–
CN1CC[C@]23c4c5ccc(O)c4O[C@H]2[C@H](NC(=O)COCC(=O)NCCCCCCCNC(=O)COCC(=O)Nc2cccc4c6c([nH]c24)[C@@H]2Oc4c(O)ccc7c4[C@@]24CCN(CC2CC2)[C@@H](C7)[C@]4(O)C6)CC[C@@]3(O)[C@H]1C5 [MDAN21]	–	–	–	–	–	–	–	–	–	–	–	–	–	antinociceptive potency compared to morphine (antinociception): 100 times
COc1ccc(CN(C(=O)[C@@H](N)Cc2c(C)cc(C(N)=O)cc2C)[C@@H](C)c2ncc(-c3ccccc3)[nH]2)cc1C(=O)O [eluxadoline]	~ 143 % basal	did not increase	~ 120 % basal	did not lead to significant changes	did not significantly reduce	significantly decreased	partially eliminate	blocked	partly blocked	not observed	reduced	significantly reduces	blocked	constipation [5]: did not cause constipation; increase in [35S]GTPγS binding compared to DAMGO or loperamide [6]: higher increase; effect on castor oil-induced body weight change compared to WT mice ([7]; 5 mg/kg): less effective; block of β-arrestin recruitment by μOR-selective antibodies [8]: ~ 17%; block of β-arrestin recruitment by μOR-δOR heteromer-selective antibodies [8]: 27%; pEC50 ([3]; EC50, [35S]GTPγS binding): ~8.15; block of β-arrestin recruitment by μOR-selective antibodies [9]: ~ 40%; fecal output versus vehicle control (constipation) ([10]; WT mice, 5 mg/kg, 4 h after castor oil): slightly reduced fecal output to below the vehicle control; effect on fecal output with coadministration of naltrexone ([10]; WT mice, naltrexone 10 mg/kg i.p.): blocked
CN(C)C(=O)C(CCN1CCC(O)(c2ccc(Cl)cc2)CC1)(c1ccccc1)c1ccccc1 [loperamide]	–	did not increase	–	did not lead to significant changes	did not significantly reduce	significantly decreased	completely eliminate	blocked	partly blocked	not observed	reduced	significantly reduces	blocked	effect on fecal output with coadministration of naltrexone ([10]; mouse, in vivo): blocked
